Data on two molecules can be found in patent US6686379B2, “Salt form of pantoprazole” (Altana Pharma AG, priority 1998, dated 2004).

Molecules are shown by their SMILES.

The series can be described thus: storage stability of the solid salt forms at 90° C. for 4 days (discoloration, decomposition). Type of series: physicochemical.

For `COc1ccnc(C[S+]([O-])c2nc3cc(OC(F)F)ccc3[n-]2)c1OC.COc1ccnc(C[S+]([O-])c2nc3cc(OC(F)F)ccc3[n-]2)c1OC.O.O.[Mg+2]` (centres unmarked) [pantoprazole magnesium dihydrate], for the setting “4 days at 90° C.”, the discoloration or decomposition entry is reported as “almost no discoloration or decomposition” and the stability entry is listed as “completely stable”. For the same molecule, the “stability properties in comparison with other forms” value (compared with pantoprazole itself, pantoprazole sodium sesquihydrate and pantoprazole sodium monohydrate) is “very considerably improved stability properties”.
Take `COc1ccnc(C[S+]([O-])c2nc3ccc(OC(F)F)cc3[nH]2)c1OC` (centres unmarked) [pantoprazole sodium sesquihydrate, sodium[5-[difluoromethoxy]-2-[[3,4-dimethoxy-2-pyridinyl]methyl]sulfinyl]-1H-benzimidazolide]sesquihydrate, reference compound]: where the note is “4 days at 90° C.”, the discoloration or decomposition result is reported as “turn brown-red” and the “formation of decomposition products” value is “considerable amounts of decomposition products”.
